Measurements reported in the supplement of paper PMC8967900.

system: KASUMI-2; assay: selective drug sensitivity score (sDSS, relative to normal bone marrow) (sDSS (score)); higher = more potent and effective on the cell line relative to normal bone marrow cells; conditions: 72 h
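Also: ALL cell lines in 384-well plates, five doses spanning 10,000-fold, each plate scaled between vehicle and 100 µmol/L benzalkonium chloride controls, sDSS an adapted area-under-curve metric.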

Compared with `Cn1cncc1[C@@](N)(c1ccc(Cl)cc1)c1ccc2c(c1)c(-c1cccc(Cl)c1)cc(=O)n2C` [Tipifarnib] (top concentration 10000 nM), `NC[C@@](O)(c1ccc(Cl)cc1)c1ccc(-c2cn[nH]c2)cc1` (top concentration 10000 nM) is higher in “selective drug sensitivity score” value: -1.3 for the first, 2.78 for the second.

First: COc1ccccc1S(=O)(=O)Nc1ccc2c(c1)CN(C)C(=O)N2 [PFI-1] (top concentration 30000 nM)
Second: Cc1ncc(-c2ccnc(Nc3ccc(S(C)(=O)=O)cc3)n2)n1C(C)C [AZD-5438] (top concentration 10000 nM)
The “selective drug sensitivity score” value of the first is higher: 2.4 for the first, -0.86 for the second.

Going from `Cc1cn(-c2cc(NC(=O)c3ccc(C)c(Nc4nccc(-c5cnccn5)n4)c3)cc(C(F)(F)F)c2)cn1` [Radotinib] (top concentration 10000 nM) to `Cn1c(Nc2ccc(C(F)(F)F)cc2)nc2cc(Oc3ccnc(-c4ncc(C(F)(F)F)[nH]4)c3)ccc21` [NVP-RAF265] (top concentration 1000 nM), the “selective drug sensitivity score” value falls from 0 to -0.22.

First: CC[C@H](Nc1ncnc2[nH]cnc12)c1nc2cccc(F)c2c(=O)n1-c1ccccc1 [Idelalisib] (top concentration 10000 nM)
Second: Cc1noc2c1-c1ccccc1C(c1ccc(Cl)cc1)=N[C@H]2CC(N)=O [CPI-0610] (top concentration 10000 nM)
The “selective drug sensitivity score” value of the first is higher: 8.04 for the first, -5.8 for the second.

First: C=C(c1ccc(C(=O)O)cc1)c1cc2c(cc1C)C(C)(C)CCC2(C)C [Bexarotene] (top concentration 10000 nM)
Second: CNCc1ccc(-c2[nH]c3cc(F)cc4c3c2CCNC4=O)cc1 [Rucaparib] (top concentration 10000 nM)
The “selective drug sensitivity score” value of the first is lower: -5.3 for the first, 3.02 for the second.

Compared with `CC1(COc2ccc3c(c2)ncn3-c2ccc3cccc(N4CCC(N)CC4)c3n2)COC1` [Crenolanib] (top concentration 10000 nM), `N#CCNC(=O)c1ccc(-c2ccnc(Nc3ccc(N4CCOCC4)cc3)n2)cc1` [Momelotinib] (top concentration 10000 nM) is lower in “selective drug sensitivity score” value: -5.22 for the first, -5.82 for the second.

Going from `O=C(Nc1cc(Oc2cc(F)c(NC(=O)C3(C(=O)Nc4ccc(F)cc4)CC3)cc2F)ccn1)C1CC1` [Altiratinib] (top concentration 10000 nM) to `O=C(Nc1ccncc1)C(=O)c1cn(Cc2ccc(Cl)cc2)c2ccccc12` [Indibulin] (top concentration 10000 nM), the “selective drug sensitivity score” value rises from -0.66 to 7.14.

First: O=C(CCCCCCC(=O)Nc1ccc([C@H]2O[C@@H](CSc3nc(-c4ccccc4)c(-c4ccccc4)o3)C[C@@H](c3ccc(CO)cc3)O2)cc1)NO [Tubacin] (top concentration 10000 nM)
Second: Cc1cc(Nc2ncc(Cl)c(Nc3ccccc3S(=O)(=O)C(C)C)n2)c(OC(C)C)cc1C1CCNCC1 [Ceritinib] (top concentration 2500 nM)
The “selective drug sensitivity score” value of the first is higher: 4.14 for the first, -3.44 for the second.

First: Nc1cccc2c1CN(C1CCC(=O)NC1=O)C2=O (stereo not given) [Lenalidomide] (top concentration 100000 nM)
Second: CCN1CCN(Cc2ccc(Nc3ncc(F)c(-c4cc(F)c5nc(C)n(C(C)C)c5c4)n3)nc2)CC1 [Abemaciclib] (top concentration 2500 nM)
The “selective drug sensitivity score” value of the first is lower: -2.28 for the first, 1.74 for the second.

system: PEER; assay: as above; conditions: 72 h

Compared with `Cn1cncc1[C@@](N)(c1ccc(Cl)cc1)c1ccc2c(c1)c(-c1cccc(Cl)c1)cc(=O)n2C` [Tipifarnib] (top concentration 10000 nM), `NC[C@@](O)(c1ccc(Cl)cc1)c1ccc(-c2cn[nH]c2)cc1` (top concentration 10000 nM) is lower in “selective drug sensitivity score” value: 10 for the first, 3.08 for the second.

Compared with `COc1ccccc1S(=O)(=O)Nc1ccc2c(c1)CN(C)C(=O)N2` [PFI-1] (top concentration 30000 nM), `Cc1ncc(-c2ccnc(Nc3ccc(S(C)(=O)=O)cc3)n2)n1C(C)C` [AZD-5438] (top concentration 10000 nM) is higher in “selective drug sensitivity score” value: 2.4 for the first, 3.04 for the second.

Going from `Cc1cn(-c2cc(NC(=O)c3ccc(C)c(Nc4nccc(-c5cnccn5)n4)c3)cc(C(F)(F)F)c2)cn1` [Radotinib] (top concentration 10000 nM) to `Cn1c(Nc2ccc(C(F)(F)F)cc2)nc2cc(Oc3ccnc(-c4ncc(C(F)(F)F)[nH]4)c3)ccc21` [NVP-RAF265] (top concentration 1000 nM), the “selective drug sensitivity score” value falls from 19.3 to 9.78.

Going from `CC[C@H](Nc1ncnc2[nH]cnc12)c1nc2cccc(F)c2c(=O)n1-c1ccccc1` [Idelalisib] (top concentration 10000 nM) to `Cc1noc2c1-c1ccccc1C(c1ccc(Cl)cc1)=N[C@H]2CC(N)=O` [CPI-0610] (top concentration 10000 nM), the “selective drug sensitivity score” value rises from -2.16 to -1.9.

First: C=C(c1ccc(C(=O)O)cc1)c1cc2c(cc1C)C(C)(C)CCC2(C)C [Bexarotene] (top concentration 10000 nM)
Second: CNCc1ccc(-c2[nH]c3cc(F)cc4c3c2CCNC4=O)cc1 [Rucaparib] (top concentration 10000 nM)
The “selective drug sensitivity score” value of the first is lower: -3.8 for the first, -0.08 for the second.

First: CC1(COc2ccc3c(c2)ncn3-c2ccc3cccc(N4CCC(N)CC4)c3n2)COC1 [Crenolanib] (top concentration 10000 nM)
Second: N#CCNC(=O)c1ccc(-c2ccnc(Nc3ccc(N4CCOCC4)cc3)n2)cc1 [Momelotinib] (top concentration 10000 nM)
The “selective drug sensitivity score” value of the first is lower: -1.52 for the first, 1.08 for the second.

Compared with `O=C(Nc1cc(Oc2cc(F)c(NC(=O)C3(C(=O)Nc4ccc(F)cc4)CC3)cc2F)ccn1)C1CC1` [Altiratinib] (top concentration 10000 nM), `O=C(Nc1ccncc1)C(=O)c1cn(Cc2ccc(Cl)cc2)c2ccccc12` [Indibulin] (top concentration 10000 nM) is higher in “selective drug sensitivity score” value: 9.24 for the first, 11.7 for the second.

First: O=C(CCCCCCC(=O)Nc1ccc([C@H]2O[C@@H](CSc3nc(-c4ccccc4)c(-c4ccccc4)o3)C[C@@H](c3ccc(CO)cc3)O2)cc1)NO [Tubacin] (top concentration 10000 nM)
Second: Cc1cc(Nc2ncc(Cl)c(Nc3ccccc3S(=O)(=O)C(C)C)n2)c(OC(C)C)cc1C1CCNCC1 [Ceritinib] (top concentration 2500 nM)
The “selective drug sensitivity score” value of the first is higher: 7.14 for the first, -3.44 for the second.

Going from `Nc1cccc2c1CN(C1CCC(=O)NC1=O)C2=O` (stereo not given) [Lenalidomide] (top concentration 100000 nM) to `CCN1CCN(Cc2ccc(Nc3ncc(F)c(-c4cc(F)c5nc(C)n(C(C)C)c5c4)n3)nc2)CC1` [Abemaciclib] (top concentration 2500 nM), the “selective drug sensitivity score” value falls from -1.28 to -1.96.

system: MHH-CALL-4; assay: as above; conditions: 72 h

First: Cn1cncc1[C@@](N)(c1ccc(Cl)cc1)c1ccc2c(c1)c(-c1cccc(Cl)c1)cc(=O)n2C [Tipifarnib] (top concentration 10000 nM)
Second: O=C(Nc1ccncc1)C(=O)c1cn(Cc2ccc(Cl)cc2)c2ccccc12 [Indibulin] (top concentration 10000 nM)
The “selective drug sensitivity score” value of the first is higher: 6.6 for the first, 1.54 for the second.

Compared with `COc1ccccc1S(=O)(=O)Nc1ccc2c(c1)CN(C)C(=O)N2` [PFI-1] (top concentration 30000 nM), `O=C(Nc1cc(Oc2cc(F)c(NC(=O)C3(C(=O)Nc4ccc(F)cc4)CC3)cc2F)ccn1)C1CC1` [Altiratinib] (top concentration 10000 nM) is higher in “selective drug sensitivity score” value: 2.7 for the first, 2.84 for the second.

Compared with `Cc1cn(-c2cc(NC(=O)c3ccc(C)c(Nc4nccc(-c5cnccn5)n4)c3)cc(C(F)(F)F)c2)cn1` [Radotinib] (top concentration 10000 nM), `CC[C@H](Nc1ncnc2[nH]cnc12)c1nc2cccc(F)c2c(=O)n1-c1ccccc1` [Idelalisib] (top concentration 10000 nM) is higher in “selective drug sensitivity score” value: 0 for the first, 4.04 for the second.

First: Cc1noc2c1-c1ccccc1C(c1ccc(Cl)cc1)=N[C@H]2CC(N)=O [CPI-0610] (top concentration 10000 nM)
Second: CC1(COc2ccc3c(c2)ncn3-c2ccc3cccc(N4CCC(N)CC4)c3n2)COC1 [Crenolanib] (top concentration 10000 nM)
The “selective drug sensitivity score” value of the first is lower: -4.1 for the first, 0.68 for the second.

`C=C(c1ccc(C(=O)O)cc1)c1cc2c(cc1C)C(C)(C)CCC2(C)C` [Bexarotene] (top concentration 10000 nM) was tested, and the “selective drug sensitivity score” value was 3.3.
